Experiments:
hCD1d C1R cells = test: Tetrameric human iNKT‐cell TCR staining of lipid‐loaded hCD1d C1R cells (flow cytometry); format: cell-based; details: compared with α‐GalCer; overnight incubation
Description: Two analogs of ThrCer, ThrCer 6, and ThrCer 7 were synthesized. […] We first carried out measurements to assess the binding affinity of these ThrCer analogs to human iNKT‐cell TCR (Fig. 1B). Recombinant human CD1d (hCD1d) molecules were refolded in vitro with ThrCer 6 and ThrCer 7 separately and coupled to BIAcore chips, over which refolded human iNKT‐cell TCR was injected at different concentrations 34. […]
Figure 1 ThrCer 6 and ThrCer 7 are potent human iNKT‐cell agonists and display a prolonged interaction with the iNKT‐cell TCR when in complex with human CD1d molecules. […] (B) Equilibrium binding and kinetics measurements of a soluble human iNKT‐cell TCR were assessed for hCD1d molecules refolded with α‐GalCer, ThrCer, ThrCer 6, and ThrCer 7. K d values (μM) were calculated from equilibrium binding. […] After incubating overnight, the degree of iNKT‐cell recognition, assessed either (C) by using a tetrameric human iNKT‐cell TCR by flow cytometry or (D) by the addition of human iNKT cells to cultures and determining the amount of IFN‐γ released in supernatant by ELISA. (E) Human DC maturation was assessed following coculture with human iNKT cells and l μg lipids after 40 h, as determined by CD86 upregulation on DC by flow cytometry. […]

NK cells = test: In vivo transactivation of NK cells (intracellular IFN‐γ, CD69) by flow cytometry; design: species or system mice; details: 1 μg i.v.; splenocytes at 12, 24 or 33 h
Description: Supplementary file EJI-46-1224-s001.pdf: Figure S1. […] Mice were immunized i.v. with 1 μg of lipids and splenocytes stained with anti‐CD11c and anti‐CD40 mAb to determine the extent of maturation by the expression of CD40 on gated DCs (CD11c+ cells) using flow cytometry. (n=3/group) Median Fluorescent Intensity=MFI. Error bars are mean ± SEM. Figure S2. IFN‐γ in serum of mice injected intramuscularly (i.m.) with iNKT cell agonists. C57BL/6 mice (n=4) or syngeneic CD1d knockout Mice (n=2) were injected intramuscularly with α‐GalCer, ThrCer 6 or vehicle. 18 hours later blood samples were tested for IFN‐γ using ELISA. As controls, mice (n=2) were injected intravenously with α‐GalCer or ThrCer 6. Error bars are mean ±SEM. one of two experiment is shown *p=0.0114. Figure S3. Transactivation of NK cells using non‐glycosidic analogues. Mice were immunized i.v. with 1 μg of lipids and sacrificed at 12 h, 24 h or 33 h post injection (n=3/group). Splenocytes were assessed by flow cytometry for the transactivation of NK cells (DX5+NK1.1+CD3‐ cells) using (B) the surface activation marker, CD69, or (A) intracellular IFN‐γ staining. Error bars are mean ± SEM. *p < 0.05. Representative of two independent experiments Figure S4. […] Data relating to numbers of ovalbumin specific T cells was analysed using the following gating stratagy: From top left to right and then bottom left to right. […]

human DC = test: Human DC maturation (CD86 upregulation) in coculture with human iNKT cells and lipids; format: cell-based; details: compared to ThrCer; comparable to α‐GalCer; 40 h
Description: Figure 1 ThrCer 6 and ThrCer 7 are potent human iNKT‐cell agonists and display a prolonged interaction with the iNKT‐cell TCR when in complex with human CD1d molecules. (A) The structures of α‐GalCer and non‐glycosidic analogs ThrCer, ThrCer 6, and ThrCer 7 are shown. (B) Equilibrium binding and kinetics measurements of a soluble human iNKT‐cell TCR were assessed for hCD1d molecules refolded with α‐GalCer, ThrCer, ThrCer 6, and ThrCer 7. K d values (μM) were calculated from equilibrium binding. (C and D) iNKT‐cell agonists were added to human CD1d C1R cells at various concentrations. After incubating overnight, the degree of iNKT‐cell recognition, assessed either (C) by using a tetrameric human iNKT‐cell TCR by flow cytometry or (D) by the addition of human iNKT cells to cultures and determining the amount of IFN‐γ released in supernatant by ELISA. (E) Human DC maturation was assessed following coculture with human iNKT cells and l μg lipids after 40 h, as determined by CD86 upregulation on DC by flow cytometry. Median fluorescent intensity = MFI. (D and E) Error bars are mean ± SEM (triplicate wells). […]
To this end, hCD1d‐expressing C1R cells were loaded overnight with serial dilutions of lipids (α‐GalCer, ThrCer, ThrCer 6, and ThrCer 7) and then incubated with human iNKT cells. iNKT‐cell activation was assessed by measuring IFN‐γ production in the supernatant by ELISA. […]

SMILES	Staining of lipid‐loaded hCD1d C1R cells by tetrameric human iNKT‐cell TCR (hCD1d C1R cells)	Transactivation of NK cells (intracellular IFN‐γ, CD69) (NK cells)	Human DC maturation (CD86 upregulation) (human DC)
CCCCCCCCCCCCCCCCCCCCCCCCCC(=O)N[C@@H](CO[C@H]1CC[C@H](O)[C@H](O)[C@H]1O)[C@H](O)[C@H](O)CCCCCCCCCCCCCC [ThrCer 6]	enhanced staining	comparable transactivation of NK cells	improved ability
CCCCCCCCCCCCCCCCCCCCCCCCCC(=O)N[C@@H](CO[C@H]1O[C@H](CO)[C@H](O)[C@H](O)[C@H]1O)[C@H](O)[C@H](O)CCCCCCCCCCCCCC [α‐GalCer, α‐galactosylceramide, reference compound]	–	comparable transactivation of NK cells	–
CCCCCCCCCCCCCCCCCCCCCCCCCC(=O)NC(COC1CCCC(O)C(O)C1O)C(O)C(O)CCCCCCCCCCCCCC (stereo not drawn) [ThrCer 7]	enhanced staining	–	improved ability

— publication PMC4913735, “Non‐glycosidic compounds can stimulate both human and mouse iNKT cells” (European Journal of Immunology, 2016)
